This note sets out measurements from ChEMBL document CHEMBL1201862, “PubChem BioAssay data set” (2004).

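Grown in 96-well plates, cells were treated for 48 hours with each compound at five concentrations. Insufficient inhibition: endpoint recorded as highest concentration tested. Here, GI50 denotes the concentration required for 50% inhibition of growth.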 Active and inactive are the calls of the source. No stated cut-off is given here; in the data, active = GI50 up to about 1.1 µM and inactive = higher.

Test systems include A498; CCRF-CEM; HCC 2998; HL-60; HOP-62; HT-29; KM12; LOX IMVI; MOLT-4; Malme-3M; NCI-H226; NCI-H460; NCI-H522; NCI/ADR-RES; OVCAR-3; RXF 393; SF-268; SK-MEL-28; SK-OV-3; SNB-75.
What all share (assay): inhibition of tumour cell growth, NCI panel, 48 h

As to `Cc1nnc(N)s/c1=N/O`, the GI50 in the assay on A498, in the assay on CCRF-CEM, in the assay with HCC 2998, with HL-60, in the assay on HOP-62 and in the assay with HT-29 was > 100 µM (inactive) each time. Besides, the GI50 in the assay with KM12, in the assay with LOX IMVI, in the assay with MOLT-4, with Malme-3M, in the assay with NCI-H226 and in the assay on NCI-H460 was > 100 µM (inactive) in each case. The GI50 in the assay with NCI-H522, with NCI/ADR-RES, in the assay on OVCAR-3, in the assay on RXF 393, in the assay with SF-268 and in the assay with SK-MEL-28 was > 100 µM (inactive) each time. Also, the GI50 in the assay on SK-OV-3 and with SNB-75 was > 100 µM (inactive) each time.
Take `CC(=O)Nc1ccc(/C=C/c2ccc(NC(=O)Nc3ccc(/C=C/c4ccc(NC(C)=O)cc4S(=O)(=O)O)c(S(=O)(=O)O)c3)cc2S(=O)(=O)O)c(S(=O)(=O)O)c1`: the GI50 was > 100 µM (inactive) with A498; > 100 µM (inactive) in the assay with CCRF-CEM; 98.6 µM (inactive) in the assay on HCC 2998; 60.1 µM (inactive) with HL-60; > 100 µM (inactive) in the assay with HOP-62; > 100 µM (inactive) in the assay on HT-29. In addition, the GI50 in the assay on KM12 is > 100 µM (inactive); in the assay on LOX IMVI, > 94.2 µM (inactive); in the assay with MOLT-4, > 100 µM (inactive); with Malme-3M, > 100 µM (inactive); with NCI-H226, 39.8 µM (inactive); with NCI-H460, > 100 µM (inactive). The GI50 in the assay on NCI-H522, with NCI/ADR-RES, with OVCAR-3, in the assay on RXF 393, in the assay on SF-268 and in the assay on SK-MEL-28 was > 100 µM (inactive) in each case. The GI50 was > 100 µM (inactive) in the assay on SK-OV-3 and 53.8 µM (inactive) in the assay with SNB-75.
Turning to `CCCCCOc1ccc(/C=N\c2ccc(-c3ccc(/N=C\c4ccc(OCCCCC)cc4)c(OC)c3)cc2OC)cc1`, the GI50 in the assay with A498, in the assay with CCRF-CEM, in the assay on HCC 2998, with HL-60, in the assay with HOP-62 and in the assay with HT-29 was > 100 µM (inactive) throughout. Moreover, the GI50 with KM12, in the assay with LOX IMVI, with MOLT-4, with Malme-3M, with NCI-H226 and in the assay with NCI-H460 was > 100 µM (inactive) in each case. For the same compound, the GI50 is > 100 µM (inactive) with NCI-H522; > 100 µM (inactive) in the assay on NCI/ADR-RES; > 66.2 µM (inactive) in the assay with OVCAR-3; > 100 µM (inactive) in the assay on RXF 393; > 100 µM (inactive) in the assay with SF-268; > 100 µM (inactive) in the assay with SK-MEL-28. Also, the GI50 in the assay on SK-OV-3 is > 100 µM (inactive); in the assay with SNB-75, 46.9 µM (inactive).
As for `CC1(C)CC2(CC(C)(C)N1O)NC(=O)OC2=O`, the GI50 in the assay on A498 is > 100 µM (inactive); in the assay on CCRF-CEM, > 77.4 µM (inactive); in the assay with HCC 2998, > 100 µM (inactive); with HL-60, > 100 µM (inactive); in the assay on HOP-62, > 100 µM (inactive); with HT-29, > 100 µM (inactive). Further, the GI50 in the assay on KM12 was > 100 µM (inactive); in the assay with LOX IMVI, > 100 µM (inactive); in the assay on MOLT-4, > 100 µM (inactive); in the assay on Malme-3M, > 100 µM (inactive); with NCI-H226, > 100 µM (inactive); in the assay on NCI-H460, > 31.6 µM (inactive). Also, the GI50 in the assay on NCI-H522, in the assay on NCI/ADR-RES, in the assay on OVCAR-3, in the assay with RXF 393, in the assay with SF-268 and in the assay on SK-MEL-28 was > 100 µM (inactive) throughout. For the same compound, the GI50 in the assay on SK-OV-3 is > 100 µM (inactive); with SNB-75, > 67.3 µM (inactive).
In the case of `CC[C@@]1(O)C[C@H](OC2CC(N(C)C)C(OC3CC(O)C(OC4CC(O)C(O)C(C)O4)C(C)O3)C(C)O2)c2c(cc3c(c2O)C(=O)c2c(O)ccc(O)c2C3=O)[C@H]1C(=O)OC` (some centres undefined), the GI50 was 0.0146 µM (active) in the assay with A498; < 0.0181 µM (active) with CCRF-CEM; 0.1 µM (active) in the assay with HCC 2998; 0.0448 µM (active) in the assay with HL-60; 0.06 µM (active) with HOP-62; 0.022 µM (active) with HT-29. Besides, the GI50 with KM12 was < 0.0174 µM (active); with LOX IMVI, 0.163 µM (active); in the assay on MOLT-4 it was 0.0141 µM (active); in the assay on Malme-3M, 0.0478 µM (active); in the assay on NCI-H226, 0.0427 µM (active); with NCI-H460, 0.00577 µM (active). Besides, the GI50 in the assay on NCI-H522 was 0.0343 µM (active); with NCI/ADR-RES, 0.625 µM (active); in the assay with OVCAR-3 it was 0.0321 µM (active); in the assay on RXF 393 it was 0.0356 µM (active); with SF-268, 0.0263 µM (active); with SK-MEL-28, 0.0369 µM (active). Further, the GI50 with SK-OV-3 was 0.0811 µM (active); with SNB-75, 0.0548 µM (active).
Regarding `CCCCCCCCCC[C@@H](O)[C@@H]1CC[C@@H]([C@@H]2CC[C@@H]([C@@H](O)CCCCCCCCCCC(O)CC3=CC(C)OC3=O)O2)O1` (some centres undefined), the GI50 in the assay on A498 was 5.61 µM (inactive); in the assay on CCRF-CEM it was 2.47 µM (inactive); in the assay with HCC 2998, 4.84 µM (inactive); with HL-60 it was 0.116 µM (active); in the assay with HOP-62 it was 0.655 µM (active); in the assay on HT-29, > 10 µM (inactive). The GI50 is 3.53 µM (inactive) with KM12; 1.05 µM (active) with LOX IMVI; 1.26 µM (inactive) in the assay on MOLT-4; 1.81 µM (inactive) in the assay with Malme-3M; 0.173 µM (active) in the assay with NCI-H226; 1.28 µM (inactive) in the assay with NCI-H460. For the same compound, the GI50 with NCI-H522 is 0.177 µM (active); in the assay on NCI/ADR-RES it was 0.729 µM (active); with RXF 393, 2.69 µM (inactive); in the assay with SF-268, > 10 µM (inactive); with SK-MEL-28, > 10 µM (inactive); in the assay with SK-OV-3, > 10 µM (inactive). Besides, the GI50 in the assay on SNB-75 is > 10 µM (inactive).
